Measured values: ChEMBL document CHEMBL1150436 (Bioorg Med Chem Lett, 1995)

Tests used:
[1] = target: T1, 5-hydroxytryptamine receptor 1A (Rattus norvegicus, UniProt P19327); assay: Ability to displace [3H]-8-OH-DPAT from serotonergic 5-hydroxytryptamine 1A receptor
T1 sequence (P19327 whole entry): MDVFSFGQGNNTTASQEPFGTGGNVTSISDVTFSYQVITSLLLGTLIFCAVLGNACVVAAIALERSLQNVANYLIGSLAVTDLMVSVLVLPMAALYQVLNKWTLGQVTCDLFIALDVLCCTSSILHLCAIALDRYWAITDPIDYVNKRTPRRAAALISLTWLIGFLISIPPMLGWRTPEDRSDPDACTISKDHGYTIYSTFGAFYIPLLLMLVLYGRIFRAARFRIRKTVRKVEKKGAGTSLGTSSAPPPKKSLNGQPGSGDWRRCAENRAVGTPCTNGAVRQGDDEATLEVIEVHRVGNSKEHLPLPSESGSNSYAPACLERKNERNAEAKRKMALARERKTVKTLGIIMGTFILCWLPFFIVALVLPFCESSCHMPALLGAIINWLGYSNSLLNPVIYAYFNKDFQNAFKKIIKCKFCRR

[2] = target: T2, Serotonin 2 (5-HT2) receptor (Rattus norvegicus, UniProt P30994+P08909+P14842); assay: Ability to displace [3H]ketanserin from serotonergic 5-hydroxytryptamine 2 receptor; type: protein assay
[3] = target: T3, D(2) dopamine receptor (Rattus norvegicus, UniProt P61169); assay: Ability to displace [3H]spiperone from D2 dopamine receptor isolated from the striata of male Wistar rats
T3 sequence (P61169 whole entry): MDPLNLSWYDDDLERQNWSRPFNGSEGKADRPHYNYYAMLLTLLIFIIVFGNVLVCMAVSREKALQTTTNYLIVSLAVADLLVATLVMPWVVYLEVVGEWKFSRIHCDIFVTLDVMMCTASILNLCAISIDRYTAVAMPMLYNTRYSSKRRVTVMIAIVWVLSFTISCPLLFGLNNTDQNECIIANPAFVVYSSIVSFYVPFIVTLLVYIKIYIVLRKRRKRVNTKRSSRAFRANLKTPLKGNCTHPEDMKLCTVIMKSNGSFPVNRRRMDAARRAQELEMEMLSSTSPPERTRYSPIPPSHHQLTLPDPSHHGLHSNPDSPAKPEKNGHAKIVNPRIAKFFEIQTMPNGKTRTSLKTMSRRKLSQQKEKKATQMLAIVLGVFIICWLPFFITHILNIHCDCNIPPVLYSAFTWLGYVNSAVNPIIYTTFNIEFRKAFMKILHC

[4] = target: T1, 5-hydroxytryptamine receptor 1A; assay: Compound was evaluated for its ability to displace [3H]8-OH-DPAT from serotonergic 5-hydroxytryptamine 1A receptor
[5] = target: T2, Serotonin 2 (5-HT2) receptor; assay: Compound was evaluated for its ability to displace [3H]ketanserin from serotonergic 5-hydroxytryptamine 2 receptor; type: protein assay
[6] = target: T3, D(2) dopamine receptor; assay: Compound was evaluated for its ability to displace [3H]spiperone from D2 dopamine receptor isolated from the striata of male Wistar rats

Compound	Ki [1] [nM]	Ki [2] [nM]	Ki [3] [nM]	Ki [4] [nM]	Ki [5] [nM]	Ki [6] [nM]
CN1CCOc2c(C(=O)NC[C@@H]3CCCN3Cc3ccccc3)cc(Cl)cc21	220	420	310			
CCCCCCCCCN1CCC[C@@H]1CNC(=O)c1cc(Cl)cc2c1OCC(=O)N2C	> 1000	> 1000	> 1000			
CCN1CCC[C@@H]1CNC(=O)c1cc(Cl)cc2c1OCC2	> 1000	> 1000	> 1000			
CCN1CCC[C@H]1CNC(=O)c1cc(Cl)cc2c1OCC2	> 1000	> 1000	6.5			
CCN1CCC[C@H]1CNC(=O)c1cc(Cl)cc2c1OCCN2C	> 1000	> 1000	16			
CN1CCOc2c(C(=O)NC[C@H]3CCCN3Cc3ccccc3)cc(Cl)cc21	21	99	210			
CSc1cc(C(=O)NC[C@@H]2CCCN2Cc2ccccc2)c2c(c1)N(C)CCO2	880	550	270			
CSc1cc(C(=O)NC[C@H]2CCCN2Cc2ccccc2)c2c(c1)N(C)CCO2	17	27	4.2			
CCN1CCC[C@@H]1CNC(=O)c1cc(Cl)cc2c1OCC(=O)N2C	> 1000	> 1000	> 1000			
CCN1CCC[C@H]1CNC(=O)c1cc(Cl)cc2c1OCC(=O)N2C	> 1000	> 1000	> 1000			
CN1CCOc2c(C(=O)NC[C@H]3CCCN3CCc3ccccc3)cc(Cl)cc21	35	1700	57			
CN1CCOc2c(C(=O)NC[C@@H]3CCCN3CCc3ccccc3)cc(Cl)cc21	10		800			
CCCCN1CCC[C@@H]1CNC(=O)c1cc(Cl)cc2c1OCC(=O)N2C	> 1000	> 1000	> 1000			
CCCCCCCCCN1CCC[C@H]1CNC(=O)c1cc(Cl)cc2c1OCC(=O)N2C	> 1000	> 1000	> 1000			
CCCCN1CCC[C@H]1CNC(=O)c1cc(Cl)cc2c1OCC(=O)N2C	> 1000	> 1000	> 1000			

Continued, values first:

Ki [1] [nM]	Ki [2] [nM]	Ki [3] [nM]	Ki [4] [nM]	Ki [5] [nM]	Ki [6] [nM]	Compound
120	22	17				CCCCN1CCC[C@@H]1CNC(=O)c1cc(SC)cc2c1OCCN2C
16	3700	92				CCCCCCCCCN1CCC[C@@H]1CNC(=O)c1cc(S(N)(=O)=O)ccc1OC
19	2100	3.6				CCCCN1CCC[C@H]1CNC(=O)c1cc(SC)cc2c1OCCN2C
570	> 1000	> 1000				CCCCCCCCCN1CCC[C@H]1CNC(=O)c1cc(Cl)cc2c1OCC2
330	400					CCCCN1CCC[C@@H]1CNC(=O)c1cc(Cl)cc2c1OCC2
			170	2200	270	CCCCN1CCCC1CNC(=O)c1cccc2c1OCCN2C (centres undefined)
> 1000	> 1000	> 1000				CCN1CCC[C@@H]1CNC(=O)c1cc(Cl)cc2c1OCCN2C
18	3300					CCCCN1CCC[C@H]1CNC(=O)c1cc(Cl)cc2c1OCC2
			> 1000	> 1000	690	CCCCCCCCCN1CCC[C@@H]1CNC(=O)c1cc(Cl)cc2c1OCCN2C
			1200	> 1000		CCCCN1CCC[C@H]1CNC(=O)c1cc(S(N)(=O)=O)ccc1OC
			4500	> 1000		CCCCN1CCC[C@@H]1CNC(=O)c1cc(S(N)(=O)=O)ccc1OC
330	> 1000	84				CCCCCCCCCN1CCC[C@@H]1CNC(=O)c1cc(Cl)cc2c1OCC2
			430		630	CCCCN1CCC[C@@H]1CNC(=O)c1cc(Cl)cc2c1OCCN2C
			450	3000	670	CCCCN1CCCC1CNC(=O)c1cc(S(N)(=O)=O)cc2c1OCCN2C (centres undefined)
81	2300	180				CCCCCCCCCN1CCC[C@H]1CNC(=O)c1cc(S(N)(=O)=O)ccc1OC
			34		12	CCCCN1CCC[C@H]1CNC(=O)c1cc(Cl)cc2c1OCCN2C
			280	> 1000	750	CCCCCCCCCN1CCC[C@H]1CNC(=O)c1cc(Cl)cc2c1OCCN2C
